24 compounds from patent US8044198B2, “Sirtuin modulating compounds” (Sirtris Pharmaceuticals, Inc., priority 2005, dated 2011) can be followed below.

Experiment [1] concerns the target T1, SIRT1 (Homo sapiens, UniProt Q96EB6).
T1 sequence (Q96EB6 1-747): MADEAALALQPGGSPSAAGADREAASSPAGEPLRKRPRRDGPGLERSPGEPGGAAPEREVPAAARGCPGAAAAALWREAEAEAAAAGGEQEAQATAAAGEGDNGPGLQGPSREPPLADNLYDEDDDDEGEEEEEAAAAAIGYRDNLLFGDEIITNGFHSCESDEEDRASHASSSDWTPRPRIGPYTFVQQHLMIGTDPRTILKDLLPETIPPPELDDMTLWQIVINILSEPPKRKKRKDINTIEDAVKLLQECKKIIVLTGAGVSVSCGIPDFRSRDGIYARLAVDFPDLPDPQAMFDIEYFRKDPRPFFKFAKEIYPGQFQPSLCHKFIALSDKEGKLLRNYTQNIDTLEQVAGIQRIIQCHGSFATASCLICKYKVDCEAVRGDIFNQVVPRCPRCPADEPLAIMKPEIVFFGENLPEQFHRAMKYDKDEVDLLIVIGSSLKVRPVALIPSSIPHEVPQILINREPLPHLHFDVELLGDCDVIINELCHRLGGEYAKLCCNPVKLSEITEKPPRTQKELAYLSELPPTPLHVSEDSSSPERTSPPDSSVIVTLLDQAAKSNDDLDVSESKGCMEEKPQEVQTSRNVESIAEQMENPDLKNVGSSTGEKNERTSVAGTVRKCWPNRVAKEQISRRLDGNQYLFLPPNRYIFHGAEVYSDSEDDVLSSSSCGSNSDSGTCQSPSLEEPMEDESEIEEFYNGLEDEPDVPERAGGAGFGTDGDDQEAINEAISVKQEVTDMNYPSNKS
Description: SIRT1 fluorescence polarization (FP) deacetylation assay with p53-based peptide substrates. Format: biochemical. Conditions: for EC50: SIRT1 activation, read-out: ED50 FP ASSAY; for IC50: Sirt1 Inhibitors. As to the method: A fluorescence polarization or mass spectrometry based assay was used to identify modulators of SIRT1 activity. The same assay may be used to identify modulators of any sirtuin protein. The fluorescence polarization assays utilizes one of two different peptides based on a fragment of p53, a known sirtuin deacetylation target. Compounds 1-18 were tested using a substrate containing peptide 1 having 14 amino acid residues as follows: […](Ac)NleSTEG (SEQ ID NO: 1) wherein K(Ac) is an acetylated lysine residue and Nle is a norleucine. The peptide is labeled with the fluorophore MR121 (excitation 635 nm/emission 680 nm) at the C-terminus and biotin at the N-terminus. The sequence of the peptide substrate is based on p53 with several modifications. In particular, all arginine and leucine residues other than the acetylated lysine have replaced with serine so that the peptide is not susceptible to trypsin cleavage in the absence of deacetylation. In addition, the methionine residue naturally present in the sequence has been replaced with the norleucine because the methionine may be susceptible to oxidation during synthesis and purification. […] This peptide is labeled with the fluorophore MR121 (excitation 635 nm/emission 680 nm) at the C-termini and biotin at the N-termini. The sequence of the peptide substrates are based on p53 with several modifications. In particular, all arginine and leucine residues other than the acetylated lysine residues have replaced with serine so that the peptides are not susceptible to trypsin cleavage in the absence of deacetylation. In addition, the methionine residues naturally present in the sequences have been replaced with the norleucine because the methionine may be susceptible to oxidation during synthesis and purification. […] The peptide is labeled with the fluorophore 5TMR (excitation 540 nm/emission 580 nm) at the C-terminus. The sequence of the peptide substrate is also based on p53 with several modifications. In addition, the methionine residue naturally present in the sequence was replaced with the norleucine because the methionine may be susceptible to oxidation during synthesis and purification.
The peptide substrates were exposed to a sirtuin protein in the presence of NAD^+ to allow deacetylation of the substrate and render it sensitive to cleavage by trypsin. Trypsin was then added and the reaction was carried to completion (i.e., the deacetylated substrate is cleaved) releasing the MR121 or 5TMR fragment. Streptavidin is then added to the reaction where it can bind both the uncleaved substrate (i.e., any remaining acetylated substrate) and the non-fluorescent portion of the cleaved peptide substrate (i.e., the biotin containing fragment). The fluorescence polarization signal observed for the full length peptide substrates bound to streptavidin was higher than the fluorescence polarization signal observed for the released MR121 or 5TMR C-terminal fragment. In this way, the fluorescence polarization obtained is inversely proportional to the level of deacetylation (e.g., the signal is inversely proportional to the activity of the sirtuin protein). Results were read on a microplate fluorescence polarization reader (Molecular Devices Spectramax MD) with appropriate excitation and emission filters.
The fluorescence polarization assays using peptide 1 was conducted as follows: 0.5 μM peptide substrate and 150 μM βNAD^+ is incubated with 0.1 μg/mL of SIRT1 for 60 minutes at 37° C. in a reaction buffer (25 mM Tris-acetate pH8, 137 mM Na—Ac, 2.7 mM K—Ac, 1 mM Mg—Ac, 0.05% Tween-20, 0.1% Pluronic F127, 10 mM CaCl2, 5 mM DTT, 0.025% BSA, 0.15 mM Nicotinamide). Test compounds 1-18 were solubilized in DMSO and added to the reaction at 11 concentrations ranging from 0.7 μM to 100 μM. […]

The target of experiment [2] is T1, SIRT1. The experiment can be described thus: SIRT1 mass spectrometry (MS) based deacetylation assay. The following applies: for EC50: SIRT1 activation, mass spectrometry assay, read-out: ED50 MS ASSAY; for FOLD ACT. MS: fold activation of SIRT1 as determined by MS. Format: biochemical.
Experiment [3] has as its system NCI-H358 cells. Description: Cellular ATP Assay (ATPLite 1Step normalized to AlamarBlue viability). The experiment is classed as cell-based. The following applies: Homo sapiens, compounds that raised intracellular ATP levels, read-out: ED50 ATP ASSAY. As to the method:
Cellular ATP levels are an indirect measurement of cellular metabolic rates and, by extension, mitochondrial function. […] The ATP assay is combined with a cellular viability assay so that cellular ATP levels can be normalized to viable cells. Cellular ATP levels were measured using the ATPLite 1Step Kit (PerkinElmer) and cellular viability was measured using the cell permeable dye, AlamarBlue™.
The Cellular ATP Assay is a multiplexed assay that measures both ATP levels and viability of a given cell sample. This assay is run in a 96-well Assay Plate and data are reported as the [ATP]/viability for each well in the Assay Plate.
The ATPLite 1 Step™ Kit is a single-step luminescent cell-based assay for detection of ATP. The kit contains lyophilized substrate mixture, comprised of D-luciferin and the firefly (Photinus pyralis) enzyme luciferase. Additionally, the kit contains a detergent-based reconstitution buffer that induces the lysis of cellular membranes. The luciferase in the assay mixture catalyzes a reaction between the free cellular ATP and D-luciferin to produce bioluminescence according to the schematic reaction outlined below. The amount of light produced is proportional to the cellular ATP concentration.
The AlamarBlue™ Assay is a single-step assay that utilizes a soluble, non-toxic, cell permeable dye that is added to cell growth media. This dye undergoes electron reduction in viable cells but not dead cells. The reduced dye product gives a fluorescent signal which can be monitored with a fluorescence plate reader (excitation 545 nm and emission 575 nm). The amount of fluorescence generated in a given well is proportional to the number of viable cells. The viability signal generated by this assay is used to normalize the ATP signal from the ATPLite 1Step™ assay results.
The material was dissolved in 100% vehicle (DMSO) to yield a final concentration of 10 mM (stock solution). The stock solution was serially diluted with 100% DMSO as described in SOP 7.10.
In this assay NCI-H358 cells (obtained from the American Tissue Culture Collection, ATCC) were seeded in 96 well microplates (10^4 cells/well). The NCI-H358 Growth Culture Media consists of RPMI 1640 Media supplemented with 10% FBS, […] streptomycin, and 100 units/mL penicillin. […] After 48 hours of compound treatment under cell growth conditions, plates were removed from incubator, and 15 μl of AlamarBlue™ dye was added to each well. Cell microplates were incubated with dye for 2 hours under growth conditions, and fluorescence was subsequently measured using a plate reader. Media containing AlamarBlue™ was removed, and plates were washed in 100 μl of PBS per well. This wash was removed, and 200 μl of 1×ATPLite 1Step reagent was added to each well. Luminescence was then measured using a plate reader. The ATP signal for each well, measured by the luminescence scan, was normalized to its corresponding cell viability value, measured by the fluorescence scan, to generate the average ATP level per viable cell unit (ATP/vCell). The ATP/vCell for each treatment was then normalized to the average vehicle ATP/vCell for its respective cell microplate, yielding the normalized ATP/vCell (norm. ATP/vCell). Finally, the norm. ATP/vCell for each unique treatment was averaged across plate replicates, generating the average norm. ATP/vCell.
Each of these ATP levels was normalized to the cell viability in the corresponding treatment well, generating the ATP/vCell value. Each ATP/vCell value was subsequently normalized to its average Vehicle ATP/vCell values for its respective cell microplate.
Data are represented as the normalized ATP/vCell (arbitrary units). […] These values represent an average of three plate replicates.
A number of compounds were screened for their affect on ATP levels in the assay as described in Example 5. […] NA means that the compound was not tested using the indicated assay.

As for `Cc1ccc(C)n1-c1cccc(C(=O)Nc2ccc(-c3nc4ncccc4o3)cc2)c1` [Compound 19], the EC50 in experiment [1] and in experiment [2] was over 150 µM in each case.

With `O=C(Nc1ccc(-c2nc3ncccc3o2)cc1)c1ccc(N2CCOCC2)cc1` [Compound 20], the EC50 in experiment [1] and in experiment [2] was over 150 µM in each case. Take `O=C(Nc1ccc(-c2nc3ncccc3o2)cc1)c1ccc(N2CCCCC2)cc1` [Compound 21]: the EC50 in experiment [1] and in experiment [2] was over 150 µM each time. As to `COc1ccc(C(=O)Nc2ccc(-c3nc4ncccc4o3)cc2)cc1C(F)(F)F` [Compound 22], the EC50 in experiment [1] and in experiment [2] was over 150 µM each time. `CN(C)c1cccc(C(=O)Nc2ccc(-c3nc4ncccc4o3)cc2)c1` [Compound 23]: the concentration for half-maximal inhibition (IC50) in experiment [1] is over 150 µM. For the compound `CN(C)c1ccc(C(=O)Nc2ccc(-c3nc4ncccc4o3)cc2)cc1` [Compound 24], the EC50 in experiment [1] and in experiment [2] was over 150 µM in each case.

As for `N#Cc1cccc(C(=O)Nc2ccc(-c3nc4ncccc4o3)cc2)c1` [Compound 25], the concentration for half-maximal inhibition (IC50) in experiment [1] fell in the range of 51 to 100 µM. Still for that read-out and setting: then `N#Cc1ccc(C(=O)Nc2ccc(-c3nc4ncccc4o3)cc2)cc1` [Compound 26], with 51 to 100 µM.

For `COc1cccc(OC)c1C(=O)Nc1ccc(-c2nc3ncccc3o2)cc1` [Compound 27], the EC50 in experiment [1] and in experiment [2] was over 150 µM each time. With `O=C(Nc1ccc(-c2nc3ncccc3o2)cc1)c1ccccc1N1CCOCC1` [Compound 28], the IC50 in experiment [1] is over 150 µM. For `O=C(Nc1ccc(-c2nc3ncccc3o2)cc1)c1ccc(N2CCCC2)cc1` [Compound 29], the EC50 in experiment [1] and in experiment [2] was over 150 µM each time.

For `COc1ccc(C(=O)Nc2ccc(-c3nc4ncccc4o3)cc2)cc1Cl` [Compound 30], in experiment [1], the IC50 was over 150 µM.

As for `COc1cccc(C(=O)Nc2ccc(-c3nc4ncccc4o3)cc2)c1C` [Compound 31], the EC50 in experiment [1] and in experiment [2] was over 150 µM in each case. Take `O=C(Nc1ccc(-c2nc3ncccc3o2)cc1)c1cccc(OC(F)(F)F)c1` [Compound 32]: the EC50 in experiment [1] and in experiment [2] was over 150 µM each time. As for `COc1ccc(C(=O)Nc2ccc(-c3nc4ncccc4o3)cc2)cc1OC` [Compound 33], the EC50 in experiment [1] and in experiment [2] was over 150 µM in each case. For the compound `COc1ccc(C(=O)Nc2ccc(-c3nc4ncccc4o3)cc2)c(OC)c1OC` [Compound 34], the EC50 in experiment [1] and in experiment [2] was over 150 µM throughout. For the compound `COc1ccc(C(=O)Nc2ccc(-c3nc4ncccc4o3)cc2)cc1` [Compound 35], the EC50 in experiment [1] and in experiment [2] was over 150 µM in each case. For `COc1ccc(C(=O)Nc2ccc(-c3nc4ncccc4o3)cc2)c(OC)c1` [Compound 36], the EC50 in experiment [1] and in experiment [2] was over 150 µM throughout.

For `O=C(Nc1ccc(-c2nc3ncccc3o2)cc1)c1ccccc1` [Compound 37], the EC50 in experiment [1] and in experiment [2] was over 150 µM each time. Take `CN(C)c1cccc(C(=O)Nc2cccc(-c3nc4ncccc4o3)c2)c1` [Compound 42]: the results for the EC50 in experiment [1], in experiment [2] and in experiment [3] were 5 to 50 µM, 5 to 50 µM and under 50 µM, respectively. Also, the “FOLD ACT. MS” value in experiment [2] is given as “B (B (Fold Activation <250%))”.

Take `CN(C)c1ccc(C(=O)Nc2cccc(-c3nc4ncccc4o3)c2)cc1` [Compound 43]: in experiment [1], the EC50 lay within 5 to 50 µM. Besides, in experiment [2], the EC50 fell in the range of 5 to 50 µM and the “FOLD ACT. MS” value is “B (B (Fold Activation <250%))”. Take `COc1cc(C)ccc1C(=O)Nc1cccc(-c2nc3ncccc3o2)c1` [Compound 51]: the EC50 in experiment [1] fell in the range of 5 to 50 µM. For the same compound, in experiment [2], the EC50 lay within 5 to 50 µM and the “FOLD ACT. MS” value was “B (B (Fold Activation <250%))”. For `COc1ccc(C(=O)Nc2cccc(-c3nc4ncccc4o3)c2)c(OC)c1` [Compound 55], the EC50 in experiment [1] and in experiment [2] was 5 to 50 µM in each case. In experiment [2], the “FOLD ACT. MS” value is on record as “B (B (Fold Activation <250%))”. Consider `Cc1cc(SCc2sc(-c3ccc(C(F)(F)F)cc3)nc2C)ccc1OCC(=O)O` [Compound 291], for which the IC50 in experiment [1] was in the range of 51 to 100 µM.
